Where no end group is shown, it is not given here. [ ]: non-standard residue; d: D form. hArg = N=C(N)NCCCC[C@H](N)C(=O)O
Tested on: protein kinase A
Assay: not given
Conditions: selected protein kinase A synthetic substrates; cited from earlier work

Compound | Km [µM]
L X^aR A S L G (L[hArg]RASLG) [SEQ ID NO.: 102, protein kinase A synthetic substrate, X = homoarginine] | 350
L R K A S L G (LRKASLG) [SEQ ID NO.: 100, protein kinase A synthetic substrate] | 260
LRRASLG [SEQ ID NO.: 94, L R R A S L G] | 16
V L Q A R R G S S I P Q (VLQARRGSSIPQ) [SEQ ID NO.: 104, protein kinase A synthetic substrate] | 11
R R A S I (RRASI) [SEQ ID NO.: 112, protein kinase A synthetic substrate] | 7
V L Q R R R P T S I P Q (VLQRRRPTSIPQ) [SEQ ID NO.: 110, protein kinase A synthetic substrate] | 118
R T G R S G S V (RTGRSGSV) [SEQ ID NO.: 106, protein kinase A synthetic substrate] | 140
R T K R S G S V (RTKRSGSV) [SEQ ID NO.: 99, protein kinase A synthetic substrate] | 21
V L Q A R R G T S I P Q (VLQARRGTSIPQ) [SEQ ID NO.: 109, protein kinase A synthetic substrate] | 139
R R A S V (RRASV) [SEQ ID NO.: 93, protein kinase A synthetic substrate] | 24
V L Q R R R G T S I P Q (VLQRRRGTSIPQ) [SEQ ID NO.: 108, protein kinase A synthetic substrate] | 39
V L Q R R R G S S I P Q (VLQRRRGSSIPQ) [SEQ ID NO.: 97, protein kinase A synthetic substrate] | 4
R R A S L G (RRASLG) [SEQ ID NO.: 95, protein kinase A synthetic substrate] | 26
L R R A S L (LRRASL) [SEQ ID NO.: 96, protein kinase A synthetic substrate] | 57
R R A S V A (RRASVA) [SEQ ID NO.: 92, protein kinase A synthetic substrate] | 20
L R R A S V A (LRRASVA) [SEQ ID NO.: 91, protein kinase A synthetic substrate] | > 10
L H R A S L G (LHRASLG) [SEQ ID NO.: 101, protein kinase A synthetic substrate] | 415
R R A S F (RRASF) [SEQ ID NO.: 111, protein kinase A synthetic substrate] | 13
G R G L S L S R (GRGLSLSR) [SEQ ID NO.: 90, protein kinase A synthetic substrate] | 240
A R T K R S G S V (ARTKRSGSV) [SEQ ID NO.: 98, protein kinase A synthetic substrate] | 10

Tested on: RAR receptors
Assay: not given
Conditions: cited from earlier work

Compound | binding to RAR receptors
CC1=C(/C=C/C(C)=C\C=C\C(C)=C\C(=O)O)C(C)(C)CCC1 [9-cis RA, 9-cis-retinoic acid] | binds to the RAR receptors
CC1(C)CCC(C)(C)c2cc(C3(c4ccc(C(=O)O)cc4)OCCO3)ccc21 [SR 11237] | not to any of the RAR isotypes
Cc1cc2c(cc1C1(c3ccc(C(=O)O)cn3)CC1)C(C)(C)CCC2(C)C [LG 100268] | not to any of the RAR isotypes
CC(C)=C(c1ccc(C(=O)O)cc1)c1ccc2c(c1)C(C)(C)CCC2(C)C [SR 11217] | not to any of the RAR isotypes
C/C(=C\c1ccc(C(=O)O)cc1)c1ccc2c(c1)C(C)(C)CCC2(C)C [TTNPB] | binds RARs
CC1=C(/C=C/C(C)=C/C=C/C(C)=C/C(=O)O)C(C)(C)CCC1 [ATRA, All trans-retinoic acid] | physiological hormone for the RAR receptors

Same assay, conditions: in vitro binding assays; cited from earlier work

Compound | RAR isotype selectivity
CC1(C)CCC(C)(C)c2cc(C(=O)Nc3ccc(C(=O)O)cc3)ccc21 [Am 580] | RARα-selective
CC1(C)CCC(C)(C)c2cc(NC(=O)c3ccc(C(=O)O)cc3)ccc21 [Am 80] | RARα-selective
CC1(C)CCSc2ccc(C#Cc3ccc(C(=O)O)cn3)cc21 [AGN 190299] | RARβ/γ selective

Target: Flag-tagged PH-RXRα (Flag tag, pleckstrin homology domain of human insulin receptor substrate-1, human RXRα) (UniProt P35568)
Assay: not given
Conditions: not given

Compound | protein kinase A activity in anti-Flag immunoprecipitates (substrate SEQ ID NO: 59), with against without AGN194204
catalytic subunit of murine protein kinase A (expressed from pFC-PKA, Stratagene) | Immunoprecipitates prepared with anti-Flag antibody showed a dramatic increase in the amount of protein kinase A activity

Target: T1, RXR-associated protein kinase in Flag-RXR immunocomplexes (Homo sapiens, UniProt P19793)
T1 construct: expressed in transfected cells; host or cells: HEK 293
T1 sequence (P19793 1-462): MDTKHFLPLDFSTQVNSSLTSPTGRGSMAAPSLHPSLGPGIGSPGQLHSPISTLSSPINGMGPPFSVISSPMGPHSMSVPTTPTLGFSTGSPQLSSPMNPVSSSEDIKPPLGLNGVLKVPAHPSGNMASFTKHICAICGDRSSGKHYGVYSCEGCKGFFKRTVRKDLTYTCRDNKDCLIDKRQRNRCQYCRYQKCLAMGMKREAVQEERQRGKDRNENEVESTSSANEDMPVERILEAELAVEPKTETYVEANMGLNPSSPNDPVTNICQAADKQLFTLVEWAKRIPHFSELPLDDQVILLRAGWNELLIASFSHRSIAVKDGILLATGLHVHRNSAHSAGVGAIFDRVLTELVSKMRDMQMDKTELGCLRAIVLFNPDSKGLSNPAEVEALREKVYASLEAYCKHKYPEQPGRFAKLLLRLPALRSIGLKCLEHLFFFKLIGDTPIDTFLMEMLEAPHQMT
Assay: In vitro kinase reaction with [γ-32P]ATP on Flag-RXR immunocomplexes from transfected HEK 293 cells
Assay type: cell-based
Conditions: transfected HEK 293 cells treated with ligand before anti-Flag immunoprecipitation
Source text: Total cell lysates were immunoprecipitated with anti-Flag antibody (M2). Aliquots of the immunocomplexes were used for the in vitro kinase reaction with [γ-^32P]ATP and separated on SDS-PAGE. Phosphorylated proteins were detected by autoradiography (top panel). Additional aliquots of the immunocomplexes were subjected to immunoblotting with polyclonal anti-RXR antisera (D20; bottom panel). (B) Phosphoamino acid analysis. Flag-RXR and the 160-kDa protein were phosphorylated in vitro and separated on SDS-PAGE as described above, then transferred onto PVDF membrane, detected by autoradiography, and cut out for hydrolysis with acid (6 N HCl). The phosphorylated amino acids and standards (P-Ser, P-Thr, and P-Tyr) were separated by thin-layer chromatography. Positions of the standards P-Ser, P-Thr, and P-Tyr were visualized by ninhydrin staining and are indicated by arrows. (C) In vivo metabolic labeling of transfected HEK 293 cells. […] Cells were washed with phosphate-free medium and starved for 90 minutes before incubation with [^32P]orthophosphate for another 4 hours. […] Total cell lysates were immunoprecipitated with anti-Flag antibody (M2) and subjected to separation on SDS-PAGE. Phosphorylated proteins were detected by autoradiography.
Total cell lysates were subjected to immunoprecipitation, and the in vitro kinase reaction performed as described above.
Cell lysis, immunoprecipitation with anti-Flag (M2), in vitro kinase assay, and detection of the phosphorylated proteins in the RXRα immunoprecipitated complexes were performed as described above.
Cell culture and transient transfection was performed as follows. HEK 293 cells were grown in Dulbecco's modified Eagle's medium (DMEM) supplemented with 10% fetal bovine serum (FBS), 100U of penicillin per ml and 10 μg of streptomycion per ml at 37° C. in 5% CO2. For expression of RXR protein, 100-mm dishes of cells were transfected at 50% confluence with 2 μg of plasmid DNA using Lipofectamine (Life Technologies) as specified by the manufacturer. At 32 hours post-transfection, cells were starved by incubating in DMEM medium with 2.5% charcoal-treated fetal bovine serum or 0.1-0.5% calf bovine serum overnight, and then treated with indicated agents. Cells were harvested by aspirating medium, rinsing in phosphate buffered saline (PBS), and extracting into Lysis Buffer (30 mM Tris-HCL, pH 7.4, 0.5% Nonidet P-40, 10% glycerol, 150 mM NaCl, 1 mM EDTA, 40 mM NaF, 1 mM sodium orthovanadate, and 0.5 mM phenylmethylsufonyl fluoride, and 1× protease inhibitors, (Roche Diagnostics) or 1×SDS Sample Buffer.
Immunoprecipitation was performed essentially as follows. Cells were solubilized in cold Lysis Buffer and subsequently clarified by centrifugation at 20,000 g for 10 minutes at 4° C. Immunoprecipitations were performed at 4° C. by incubating clarified cell extracts with the indicated antibodies (2 μg/ml) and protein A/G-agarose beads (1:30 dilution of a 50% suspension) on a rotating wheel for 4 hours to overnight. Agarose beads were pelleted by low speed centrifugation and washed extensively with ice-cold Lysis Buffer.
Protein kinase assays were performed as follows. Immunoprecipitated complexes were resuspended in 15 μl of Kinase Assay Buffer (30 mM Tris-HCl, pH 7.4 and 10 mM MgCl2). Kinase reactions were initiated by addition of 2.5 μl of 50 μM [γ-^32P]ATP (10 μCi) to the immune-complexes, followed by incubation at 25° C. with occasional shaking for 20 minutes, and terminated by addition of 6 μl 4×SDS Sample Buffer. After heating at 100° C. for 5 minutes, the reaction mixtures were resolved by 4-12% SDS-PAGE. Incorporation of ^32P into RXR or other proteins was determined by autoradiography.

Compound | phosphorylation of RXR and 160 kDa protein in Flag-RXR immunocomplexes
CC[C@]1(c2ccc3c(c2)C(C)(C)CCC3(C)C)C[C@H]1/C=C/C(C)=C/C(=O)O [AGN195184] | contained a kinase phosphorylated RXR and a 160 kDa protein
CC1(C)CCC(C)(C)c2c1cc(C(=O)Nc1cc(F)c(C(=O)O)c(F)c1)c(O)c2Cl [AGN195183] | not stimulated
C/C(=C\c1ccc(C(=O)O)cc1)c1ccc2c(c1)C(C)(C)CCC2(C)C [TTNPB] | neither RXR nor the 160 kDa protein was phosphorylated
CCCCCCOc1c(\C(C)=C/C=C/C(C)=C/C(=O)O)cc(C(C)C)cc1C(C)C [AGN195393] | neither RXR nor the 160 kDa protein was phosphorylated
CC1(C)CCC(C)(C)c2cc(C3(c4ccc(C(=O)O)cn4)CC3)ccc21 [AGN195029] | contained a kinase phosphorylated RXR and a 160 kDa protein
CCC[C@]1(c2ccc3c(c2)C(C)(C)CCC3(C)C)C[C@H]1/C=C/C(C)=C/C(=O)O [AGN195203] | contained a kinase phosphorylated RXR and a 160 kDa protein

Tested on: RXR receptors
Assay: not given
Conditions: cited from earlier work

Compound | binding to RXR receptors
CC1=C(/C=C/C(C)=C\C=C\C(C)=C\C(=O)O)C(C)(C)CCC1 [9-cis RA, 9-cis-retinoic acid] | RXR receptor ligand
CC1(C)CCC(C)(C)c2cc(C3(c4ccc(C(=O)O)cc4)OCCO3)ccc21 [SR 11237] | binding to all three RXRs
Cc1cc2c(cc1C1(c3ccc(C(=O)O)cn3)CC1)C(C)(C)CCC2(C)C [LG 100268] | binding to all three RXRs
CC(C)=C(c1ccc(C(=O)O)cc1)c1ccc2c(c1)C(C)(C)CCC2(C)C [SR 11217] | binding to all three RXRs
C/C(=C\c1ccc(C(=O)O)cc1)c1ccc2c(c1)C(C)(C)CCC2(C)C [TTNPB] | not RXRs
CC1=C(/C=C/C(C)=C/C=C/C(C)=C/C(=O)O)C(C)(C)CCC1 [ATRA, All trans-retinoic acid] | does not bind the RXR receptors

From US20050130232A1, “Methods of screening for compounds that modulate hormone receptor activity” (Allergan, Inc., priority 2001, published 2005)
